One experiment addresses T1, AURKA (Homo sapiens, UniProt O14965).
T1 construct: endogenous in cells; host or cells: Jurkat cells
T1 sequence (O14965 1-403): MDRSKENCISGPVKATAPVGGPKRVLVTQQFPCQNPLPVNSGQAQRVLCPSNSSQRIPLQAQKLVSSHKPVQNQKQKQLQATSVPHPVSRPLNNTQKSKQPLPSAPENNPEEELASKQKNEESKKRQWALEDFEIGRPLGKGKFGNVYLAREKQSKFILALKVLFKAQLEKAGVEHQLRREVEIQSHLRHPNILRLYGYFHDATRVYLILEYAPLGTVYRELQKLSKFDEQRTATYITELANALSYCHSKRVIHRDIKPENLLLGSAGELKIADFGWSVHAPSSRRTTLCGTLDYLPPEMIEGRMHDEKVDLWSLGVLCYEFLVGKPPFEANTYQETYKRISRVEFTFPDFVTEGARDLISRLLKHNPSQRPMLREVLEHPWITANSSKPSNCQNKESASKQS
The class given is cell-based. The gist of the method: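 AURKA degradation read by western blot: band signal, fluorescent or chemiluminescent, curve-fitted to derive DC50. Cells were Jurkat, plated at 1×10^6 cells/500 µL with compound, then lysed and blotted onto nitrocellulose, primary antibody overnight at 4°C.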

In a further experiment the test system is H82 cells. The experiment is described as follows: cells. The class given is cell-based. The note with it: Homo sapiens. The method, then:
CellTiter-Glo (CTG) is a rapid cell viability test method based on ATP detection. […] Adenosine triphosphate (ATP) participates in various enzymatic reactions in organisms and is an indicator of living cell metabolism. Its content directly reflects the number of living cells and cell status. During the experiment, equal volume of CTG reagent is added to the cultured cells to measure the luminescence value. The chemiluminescent signal value is proportional to the amount of ATP, thus reflecting the number of viable cells. Therefore, cell viability can be obtained by detecting the ATP content. Compounds that affect cell viability will inhibit cell viability in a concentration-dependent manner, allowing a curve to be fitted to obtain the IC50 value.
The experimental procedure is as follows: • 11. Place the cell suspension in a 15 mL centrifuge tube, centrifuge at 1000 rpm for 5 min at room temperature, discard the supernatant, and collect the cell pellet. • 12. Resuspend the cell pellet with preheated complete cell culture medium (RPMI1640+10%FBS+1%PS), and use a Countess® automated cell counter to detect cell viability and density. […] Transfer the compound solution to a 96-well plate seeded with cells (final concentration of DMSO 0.1%), and place in a cell incubator at 37°C, 5% CO2 for 6 days. • 15. […] Protect from light during the whole process. Perform optical signal readings using a SpectraMax i3x reader. • 16. Data analysis: Remaining activity (%) = 100% * (1 - ((LumDMSO - Lummedium) - Lumsample) / (LumDMSO - LumPBS/medium)). Use GraphPad Prism 9.0 software to draw an S-shaped dose-survival rate curve and calculate the IC50 value using a nonlinear regression model.

The mark [1] stands for this setting: 100 nM compound, Jurkat cells, 24 h, Table 2.
[2] abbreviates: 1 µM compound, Jurkat cells, 24 h, Table 2.
Setting [3] is: NCI-H82, read-out: IC50 in H82 Cells.
Where [4] appears, read: NCI-H82, H82 cells, 4000 cells/well, CellTiter-Glo, read-out: IC50 in H82 Cells.

Molecules are shown by their SMILES. Like-named read-outs stand apart in the source and are kept apart here.

For `O=C1CCN(c2ccc(N3CCC4(CC3)C[C@H](N3CCN(c5ccc(Nc6ncc7c(n6)-c6ccc(Cl)cc6C(c6c(F)cccc6F)=NC7)cc5)CC3)CO4)nc2)C(=O)N1` [Compound A342], the “Percentage of AURKA Degradation Induced by 100 nM Compound in Jurkat Cells” value (“Percentage … by 100 nM Compound in Jurkat Cells” for short) on AURKA (setting [1]) is on record as “+++ (Degradation > 70%)”. In addition, the “Percentage of AURKA Degradation Induced by 1 µM Compound in Jurkat Cells” value (from here on “Percentage … by 1 µM Compound in Jurkat Cells”) at AURKA (setting [2]) is given as “+++ (Degradation > 70%)”. The IC50 – broadly, the concentration at which inhibition is half-maximal – in the experiment with H82 cells (setting [3]) was < 1 µM.
As to `O=C1CCN(c2ccc(N3CCC4(CC3)CC(N3CCN(c5ccc(Nc6ncc7c(n6)-c6ccc(Cl)cc6C(c6c(F)cccc6F)=NC7)cc5)C(=O)C3)CO4)nc2)C(=O)N1` (stereo not drawn) [Compound A336], the “Percentage … by 100 nM Compound in Jurkat Cells” value at AURKA (setting [1]) is on record as “+++ (Degradation > 70%)”. Further, the “Percentage … by 1 µM Compound in Jurkat Cells” value at AURKA (setting [2]) is given as “+++ (Degradation > 70%)”. Also, the 50% inhibitory concentration (IC50) with H82 cells (setting [4]) is < 1 µM.
Turning to `O=C1CCN(c2cncc(N3CC(CN4CCc5ccc(Nc6ncc7c(n6)-c6ccc(Cl)cc6C(c6c(F)cccc6F)=NC7)cc5C4)C3)c2)C(=O)N1` [Compound A209], at AURKA (setting [1]), the “Percentage … by 100 nM Compound in Jurkat Cells” value is on record as “+++ (Degradation > 70%)”. For the same compound, the “Percentage … by 1 µM Compound in Jurkat Cells” value on AURKA (setting [2]) is “+++ (Degradation > 70%)”. Besides, in the experiment on H82 cells (setting [3]), the IC50 is < 1 µM.
As for `COc1ccc2c(c1)C(c1c(F)cccc1F)=NCc1cnc(Nc3ccc(C(=O)NC4CC5(CCN(c6ccc(N7CCC(=O)NC7=O)cn6)CC5)C4)cc3)nc1-2` [Compound A122], the “Percentage … by 100 nM Compound in Jurkat Cells” value on AURKA (setting [1]) is recorded as “+++ (Degradation > 70%)”. At AURKA (setting [2]), the “Percentage … by 1 µM Compound in Jurkat Cells” value is on record as “+++ (Degradation > 70%)”. In the experiment with H82 cells (setting [4]), the IC50 is < 1 µM.
`O=C1CCN(c2ccc(N3CCC(C4CN(C(=O)C56CC(Nc7ncc8c(n7)-c7ccc(Cl)cc7C(c7c(F)cccc7F)=NC8)(C5)C6)C4)CC3)nc2)C(=O)N1` [Compound A293]: the “Percentage … by 100 nM Compound in Jurkat Cells” value at AURKA (setting [1]) is reported as “+++ (Degradation > 70%)”. Further, the “Percentage … by 1 µM Compound in Jurkat Cells” value at AURKA (setting [2]) is on record as “+++ (Degradation > 70%)”. In addition, in the experiment with H82 cells (setting [4]), the IC50 was < 1 µM.
Take `O=C1CCN(c2cccc(N3CCC(N4CC5(CN(c6cccc(Nc7ncc8c(n7)-c7ccc(Cl)cc7C(c7c(F)cccc7F)=NC8)c6)C5)C4)CC3)c2)C(=O)N1` [Compound A223]: at AURKA, the “Percentage … by 100 nM Compound in Jurkat Cells” value is recorded as “+++ (key: +: Degradation ≤ 30%; ++: 30% < Degradation ≤ 70%; +++: Degradation > 70%)” and the “Percentage … by 1 µM Compound in Jurkat Cells” value is reported as “+++ (key: +: Degradation ≤ 30%; ++: 30% < Degradation ≤ 70%; +++: Degradation > 70%)”. In addition, the IC50 with H82 cells (setting [3]) was < 1 µM.
On to `Cn1nc(N2CCC(=O)NC2=O)c2ccc(N3CC4COCC(C3)N4C3CCN(c4ccc(Nc5ncc6c(n5)-c5ccc(Cl)cc5C(c5c(F)cccc5F)=NC6)cc4)CC3)cc21` [Compound A362], for which the “Percentage … by 100 nM Compound in Jurkat Cells” value on AURKA (setting [1]) is on record as “+++ (Degradation > 70%)”. For the same compound, the “Percentage … by 1 µM Compound in Jurkat Cells” value on AURKA (setting [2]) was “++ (30% < Degradation ≤ 70%)”. In the experiment on H82 cells (setting [3]), the IC50 was < 1 µM.
Regarding `CN1CCN(CC2CN(c3cncc(N4CCC(=O)NC4=O)c3)C2)Cc2cc(Nc3ncc4c(n3)-c3ccc(Cl)cc3C(c3c(F)cccc3F)=NC4)ccc21` [Compound A225], on AURKA (setting [1]), the “Percentage … by 100 nM Compound in Jurkat Cells” value was “+++ (Degradation > 70%)”. In addition, the “Percentage … by 1 µM Compound in Jurkat Cells” value on AURKA (setting [2]) was “+ (Degradation ≤ 30%)”. The 50% inhibitory concentration (IC50) in the experiment with H82 cells (setting [4]) was < 1 µM.
On to `O=C1CCN(c2ccc(N3CCC4(CC3)CC(NC(=O)c3ccc(Nc5ncc6c(n5)-c5ccccc5C(c5c(F)cccc5F)=NC6)cc3)C4)nc2)C(=O)N1` [Compound A116], for which, on AURKA (setting [1]), the “Percentage … by 100 nM Compound in Jurkat Cells” value is on record as “+++ (Degradation > 70%)”. Besides, the “Percentage … by 1 µM Compound in Jurkat Cells” value at AURKA (setting [2]) is given as “+++ (Degradation > 70%)”. Further, in the experiment with H82 cells (setting [4]), the IC50 was < 1 µM.
As for `O=C1CCN(c2ccnc(N3CCN(CC#Cc4cccc(Nc5ncc6c(n5)-c5ccc(Cl)cc5C(c5c(F)cccc5F)=NC6)c4)CC3)c2)C(=O)N1` [Compound A130], the “Percentage … by 100 nM Compound in Jurkat Cells” value on AURKA (setting [1]) is given as “++ (30% < Degradation ≤ 70%)”. Besides, at AURKA (setting [2]), the “Percentage … by 1 µM Compound in Jurkat Cells” value was “++ (30% < Degradation ≤ 70%)”. Further, in the experiment on H82 cells (setting [4]), the half-maximal inhibitory concentration (IC50) is < 1 µM.
Consider `O=C1CCN(c2ccc(N3CCC(N4CCN(C56CC(Nc7ncc8c(n7)-c7ccc(Cl)cc7C(c7c(F)cccc7F)=NC8)(C5)C6)C(=O)C4)CC3)nc2)C(=O)N1` [Compound A306], for which the “Percentage … by 100 nM Compound in Jurkat Cells” value at AURKA (setting [1]) is “++ (30% < Degradation ≤ 70%)”. In addition, the “Percentage … by 1 µM Compound in Jurkat Cells” value on AURKA (setting [2]) is on record as “+++ (Degradation > 70%)”. The IC50 with H82 cells (setting [4]) is < 1 µM.
The corresponding values for `O=C1CCN(c2ccc(N3CCN(C(=O)N4CCN(c5ccc(Nc6ncc7c(n6)-c6ccc(Cl)cc6C(c6c(F)cccc6F)=NC7)cc5)CC4)CC3)nc2)C(=O)N1` [Compound A258] are “+++ (Degradation > 70%)”, “+++ (Degradation > 70%)” and < 1 µM.
For the compound `O=C1CCN(c2ccc(N3CCC4(CCN(C(=O)C56CC(Nc7ncc8c(n7)-c7ccc(Cl)cc7C(c7c(F)cccc7F)=NC8)(C5)C6)CC4)CC3)nc2)C(=O)N1` [Compound A265], the “Percentage … by 100 nM Compound in Jurkat Cells” value at AURKA (setting [1]) was “+ (Degradation ≤ 30%)”. Also, the “Percentage … by 1 µM Compound in Jurkat Cells” value on AURKA (setting [2]) was “+ (Degradation ≤ 30%)”. Also, the IC50 in the experiment on H82 cells (setting [4]) is < 1 µM.
On to `O=C1CCN(c2ccc(N3CCN(C(=O)N4CCN(C56CC(Nc7ncc8c(n7)-c7ccc(Cl)cc7C(c7c(F)cccc7F)=NC8)(C5)C6)CC4)CC3)nc2)C(=O)N1` [Compound A255], for which the “Percentage … by 100 nM Compound in Jurkat Cells” value on AURKA (setting [1]) is “++ (30% < Degradation ≤ 70%)”. For the same compound, the “Percentage … by 1 µM Compound in Jurkat Cells” value on AURKA (setting [2]) is “++ (30% < Degradation ≤ 70%)”. The 50% inhibitory concentration (IC50) in the experiment on H82 cells (setting [4]) was < 1 µM.
With `CP(C)(=O)c1cc(Nc2ncc3c(n2)-c2ccc(Cl)cc2C(c2c(F)cccc2F)=NC3)ccc1N1CCN(C2CCN(c3ccc(N4CCC(=O)NC4=O)cn3)CC2)CC1=O` [Compound A303], the “Percentage … by 100 nM Compound in Jurkat Cells” value at AURKA (setting [1]) is recorded as “+++ (Degradation > 70%)”. Moreover, at AURKA (setting [2]), the “Percentage … by 1 µM Compound in Jurkat Cells” value is reported as “+++ (Degradation > 70%)”. For the same compound, the half-maximal inhibitory concentration (IC50) with H82 cells (setting [4]) was < 1 µM.
Regarding `NC(=O)c1cc(N2CCN(C(=O)C3CCN(c4ccc(Nc5ncc6c(n5)-c5ccc(Cl)cc5C(c5c(F)cccc5F)=NC6)cc4)CC3)CC2)ncc1N1CCC(=O)NC1=O` [Compound A334], the “Percentage … by 100 nM Compound in Jurkat Cells” value on AURKA (setting [1]) was “+ (Degradation ≤ 30%)”. Further, at AURKA (setting [2]), the “Percentage … by 1 µM Compound in Jurkat Cells” value was “+ (Degradation ≤ 30%)”. For the same compound, the half-inhibitory concentration (IC50) in the experiment with H82 cells (setting [4]) is < 1 µM.
Consider `O=C1CCN(c2cccc(N3CC(CC#Cc4cccc(Nc5ncc6c(n5)-c5ccc(Cl)cc5C(c5c(F)cccc5F)=NC6)c4)C3)c2)C(=O)N1` [Compound A133], for which the “Percentage … by 100 nM Compound in Jurkat Cells” value at AURKA (setting [1]) is listed as “++ (30% < Degradation ≤ 70%)”. Further, the “Percentage … by 1 µM Compound in Jurkat Cells” value on AURKA (setting [2]) is listed as “+++ (Degradation > 70%)”. In addition, the IC50 in the experiment on H82 cells (setting [4]) is < 1 µM.
Turning to `O=C1CCN(c2ccc(N3CCN(C(=O)C4CN(c5ccc(Nc6ncc7c(n6)-c6ccc(Cl)cc6C(c6c(F)cccc6F)=NC7)cc5)CCO4)CC3)nc2)C(=O)N1` (stereo not drawn) [Compound A308], at AURKA (setting [1]), the “Percentage … by 100 nM Compound in Jurkat Cells” value was “+++ (Degradation > 70%)”. Moreover, on AURKA (setting [2]), the “Percentage … by 1 µM Compound in Jurkat Cells” value is “+++ (Degradation > 70%)”. In the experiment with H82 cells (setting [4]), the IC50 was < 1 µM.

The record behind these values is patent EP4818168A1, “FUSED RING COMPOUND, PHARMACEUTICAL COMPOSITION THEREOF AND USE THEREOF” (priority 2023, dated 2025).
